Earlier results, collected in patent publication US20160193372A1, “METHODS OF IDENTIFYING SURROGATE IMAGING AGENTS FOR ALPHA EMITTER RADIOPHARMACEUTICALS AND THEIR USE IN TREATMENT OF DISEASE” (THE JOHNS HOPKINS UNIVERSITY, priority 2012, published 2016).

Tested on: mineralizing or proliferating bone matrix
Details: very high administered activities

^153Sm-EDTMP
pain effect in OS: pain palliation
therapeutic efficacy in OS: minimal therapeutic efficacy
